Structures are written as SMILES. pEC50: −log10 of the molar value.

Experiment [1] concerns the target T1, human M2 receptor (Homo sapiens, UniProt P08172).
T1 sequence (P08172 1-466): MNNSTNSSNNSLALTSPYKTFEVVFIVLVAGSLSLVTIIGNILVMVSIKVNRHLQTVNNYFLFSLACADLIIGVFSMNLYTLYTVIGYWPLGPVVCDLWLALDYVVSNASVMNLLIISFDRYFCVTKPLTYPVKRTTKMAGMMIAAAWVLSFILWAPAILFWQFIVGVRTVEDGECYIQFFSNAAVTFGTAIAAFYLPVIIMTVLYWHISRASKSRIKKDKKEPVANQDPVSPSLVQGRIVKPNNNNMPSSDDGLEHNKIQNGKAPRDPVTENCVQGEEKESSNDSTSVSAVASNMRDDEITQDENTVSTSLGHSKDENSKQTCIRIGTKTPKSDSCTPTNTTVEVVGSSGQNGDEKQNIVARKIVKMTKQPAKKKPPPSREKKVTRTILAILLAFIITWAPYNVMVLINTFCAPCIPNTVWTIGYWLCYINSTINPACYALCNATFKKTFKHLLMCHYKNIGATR
The following applies: Receptor activity EC50, M2-GIRK1/4 activation test, acetylcholine at EC20; allosteric potency; in some cases mean values from two or more determinations.

The target of experiment [2] is T1, human M2 receptor. Type of experiment: cell-based. The following applies: shift in the acetylcholine dose-response curve (Allosteric EC50 shift, GraphPad PRISM); α >1 = positive cooperativity. The protocol:
B-1.2. Determination of Positive Cooperativity (α Factor)
In contrast to the EC50 determination of the test substances (see B-1.1), however, this is not done using one acetylcholine concentration; instead, every concentration of the test substance is combined with an acetylcholine 8-point dose-response curve. […] The shift in the acetylcholine dose-response curve in the presence of increasing concentrations of the test substance is analysed and quantified by means of GraphPad PRISM (Allosteric EC50 shift). […] Positive cooperativity is the hallmark of a positive allosteric modulator. […] The greater the magnitude of the α value, the greater the extent of cooperativity between orthosteric and allosteric.

In turn, `O=C(NC(C1CC1)C(F)(F)F)c1cn(-c2ccccc2Cl)c2nc(N3C[C@@H](O)CC3=O)ccc2c1=O` (mixture of isomers) [Example 279, 1-(2-Chlorophenyl)-N-[1-cyclopropyl-2,2,2-trifluoroethyl]-7-[(4S)-4-hydroxy-2-oxopyrrolidin-1-yl]-4-oxo-1,4-dihydro-1,8-naphthyridine-3-carboxamide] gave a negative-log EC50 (pEC50) on human M2 receptor [1] of 7.18. Further, the “Cooperativity (alpha factor)” value on human M2 receptor [2] is 34.

On human M2 receptor [1], `CC1(F)CCN(c2ccc3c(=O)c(C(=O)NC45CC6CC(CC(C6)C4)C5)cn(-c4ccc(F)cc4F)c3n2)C1` (racemic) [Example 9, rac-1-(2,4-Difluorophenyl)-7-(3-fluoro-3-methylpyrrolidin-1-yl)-4-oxo-N-(tricyclo[3.3.1.1^3,7]dec-1-yl)-1,4-dihydro-1,8-naphthyridine-3-carboxamide] had a pEC50 of 7.40. On human M2 receptor [2], the “Cooperativity (alpha factor)” value was 11.

`CCC(NC(=O)c1cn(-c2ccc(F)cc2F)c2nc(N3CCN(C(=O)OC)CC3)ccc2c1=O)C(F)(F)F` (racemic) [Example 23, rac-Methyl 4-{8-(2,4-difluorophenyl)-5-oxo-6-[(1,1,1-trifluorobutan-2-yl)carbamoyl]-5,8-dihydro-1,8-naphthyridin-2-yl}piperazine-1-carboxylate] showed a pEC50 at human M2 receptor [1] of 7.02. For the same compound, the “Cooperativity (alpha factor)” value on human M2 receptor [2] turned out to be 20.

For `CN(C)c1ccc2c(=O)c(C(=O)NC(c3c(Cl)cccc3Cl)C(F)(F)F)cn(-c3ccc(F)cc3F)c2n1` (racemic) [Example 56, rac-N-[1-(2,6-Dichlorophenyl)-2,2,2-trifluoroethyl]-1-(2,4-difluorophenyl)-7-(dimethylamino)-4-oxo-1,4-dihydro-1,8-naphthyridine-3-carboxamide], at human M2 receptor [1], the pEC50 was 7.25. Further, the “Cooperativity (alpha factor)” value at human M2 receptor [2] was 15.

Compound `CCC(NC(=O)c1cn(-c2ccc(F)cc2F)c2nc(NCCF)ccc2c1=O)C(F)(F)F` (racemic) [Example 85, rac-1-(2,4-Difluorophenyl)-7-[(2-fluoroethyl)amino]-4-oxo-N-[1,1,1-trifluorobutan-2-yl]-1,4-dihydro-1,8-naphthyridine-3-carboxamide] gave a pEC50 on human M2 receptor [1] of 6.93. Besides, the “Cooperativity (alpha factor)” value on human M2 receptor [2] was 26.

On human M2 receptor [1], `CCC(NC(=O)c1cn(-c2ccc(F)cc2F)c2nc(N(C)CCF)ccc2c1=O)C(F)(F)F` (racemic) [Example 104, rac-1-(2,4-Difluorophenyl)-7-[(2-fluoroethyl)(methyl)amino]-4-oxo-N-[1,1,1-trifluorobutan-2-yl]-1,4-dihydro-1,8-naphthyridine-3-carboxamide] had a pEC50 of 7.55. Further, on human M2 receptor [2], the “Cooperativity (alpha factor)” value was determined as 15.

Turning to `CC(C)CC(NC(=O)c1cn(-c2ccc(F)cc2F)c2nc(N(C)CCF)ccc2c1=O)C(F)(F)F` (racemic) [Example 107, rac-1-(2,4-Difluorophenyl)-7-[(2-fluoroethyl)(methyl)amino]-4-oxo-N-[1,1,1-trifluoro-4-methylpentan-2-yl]-1,4-dihydro-1,8-naphthyridine-3-carboxamide], the pEC50 at human M2 receptor [1] is 7.24. In addition, the “Cooperativity (alpha factor)” value at human M2 receptor [2] was determined as 14.

In turn, `CC(NC(=O)c1cn(-c2ccc(F)cc2F)c2nc(NCC(F)F)ccc2c1=O)C(F)(F)F` (racemic) [Example 121, rac-7-[(2,2-Difluoroethyl)amino]-1-(2,4-difluorophenyl)-4-oxo-N-[1,1,1-trifluoropropan-2-yl]-1,4-dihydro-1,8-naphthyridine-3-carboxamide] showed a pEC50 at human M2 receptor [1] of 6.53. For the same compound, the “Cooperativity (alpha factor)” value at human M2 receptor [2] was determined as 8.

With `CC[C@@H](NC(=O)c1cn(-c2ccc(F)cc2F)c2nc(N3CCC(C)(O)C3=O)ccc2c1=O)C(F)(F)F` (mixture of isomers) [Example 194, 1-(2,4-Difluorophenyl)-7-[3-hydroxy-3-methyl-2-oxopyrrolidin-1-yl]-4-oxo-N-[(2R)-1,1,1-trifluorobutan-2-yl]-1,4-dihydro-1,8-naphthyridine-3-carboxamide], the negative-log EC50 (pEC50) at human M2 receptor [1] was 6.85. The “Cooperativity (alpha factor)” value on human M2 receptor [2] is 16.

As for `CC[C@@H](NC(=O)c1cn(-c2ccc(F)cc2F)c2nc(N3CCC(C)(OC)C3=O)ccc2c1=O)C(F)(F)F` (mixture of isomers) [Example 197, 1-(2,4-Difluorophenyl)-7-[3-methoxy-3-methyl-2-oxopyrrolidin-1-yl]-4-oxo-N-[(2R)-1,1,1-trifluorobutan-2-yl]-1,4-dihydro-1,8-naphthyridine-3-carboxamide], the pEC50 at human M2 receptor [1] is 6.92. Moreover, the “Cooperativity (alpha factor)” value at human M2 receptor [2] was 10.

Take `CCC(NC(=O)c1cn(-c2ccccc2F)c2nc(N(C)C)ccc2c1=O)C(F)(F)F` (racemic) [Example 204, rac-7-(Dimethylamino)-1-(2-fluorophenyl)-4-oxo-N-[1,1,1-trifluorobutan-2-yl]-1,4-dihydro-1,8-naphthyridine-3-carboxamide]: the negative-log EC50 (pEC50) at human M2 receptor [1] was 7.47. Further, the “Cooperativity (alpha factor)” value at human M2 receptor [2] worked out at 8.

As for `O=C(NC(c1ccccc1Cl)C(F)(F)F)c1cn(-c2ccc(F)cc2F)c2nc(N3CCCC(O)C3=O)ccc2c1=O` (racemic) [Example 206, rac-N-[(1R)-(2-Chlorophenyl)-2,2,2-trifluoroethyl]-1-(2,4-difluorophenyl)-7-[3-hydroxy-2-oxopiperidin-1-yl]-4-oxo-1,4-dihydro-1,8-naphthyridine-3-carboxamide], the pEC50 on human M2 receptor [1] is 6.97. For the same compound, the “Cooperativity (alpha factor)” value on human M2 receptor [2] is 14.

With `O=C(NC(c1ccccc1Cl)C(F)(F)F)c1cn(-c2ccc(F)cc2F)c2nc(N3C[C@@H](O)CC3=O)ccc2c1=O` (mixture of isomers) [Example 211, N-[1-(2-Chlorophenyl)-2,2,2-trifluoroethyl]-1-(2,4-difluorophenyl)-7-[(4S)-4-hydroxy-2-oxopyrrolidin-1-yl]-4-oxo-1,4-dihydro-1,8-naphthyridine-3-carboxamide], the pEC50 on human M2 receptor [1] is 7.68. In addition, the “Cooperativity (alpha factor)” value on human M2 receptor [2] was 35.

`CC(NC(=O)c1cn(-c2ccc(F)cc2F)c2nc(N3C[C@@H](O)CC3=O)ccc2c1=O)c1c(F)cccc1F` (mixture of isomers) [Example 214, 1-(2,4-Difluorophenyl)-N-[1-(2,6-difluorophenyl)ethyl]-7-[(4S)-4-hydroxy-2-oxopyrrolidin-1-yl]-4-oxo-1,4-dihydro-1,8-naphthyridine-3-carboxamide]: the pEC50 at human M2 receptor [1] was 6.97. The “Cooperativity (alpha factor)” value at human M2 receptor [2] is given as 43.

Consider `CC[C@@H](NC(=O)c1cn(-c2ccc(F)cc2F)c2nc(N3CC4CNC(=O)C4C3)ccc2c1=O)C(F)(F)F` (mixture of isomers) [Example 221, 1-(2,4-Difluorophenyl)-4-oxo-7-[4-oxohexahydrpyrrolo[3,4-c]pyrrol-2(1H)-yl]-N-[(2R)-1,1,1-trifluorobutan-2-yl]-1,4-dihydro-1,8-naphthyridine-3-carboxamide], for which, on human M2 receptor [1], the pEC50 is 6.97. The “Cooperativity (alpha factor)” value at human M2 receptor [2] was 24.

Take `CC[C@@H](NC(=O)c1cn(-c2ccc(F)cc2F)c2nc(N3CCC(O)C3=O)ccc2c1=O)C(F)(F)F` (mixture of isomers) [Example 224, 1-(2,4-Difluorophenyl)-7-[3-hydroxy-2-oxopyrrolidin-1-yl]-4-oxo-N-[(2R)-1,1,1-trifluorobutan-2-yl]-1,4-dihydro-1,8-naphthyridine-3-carboxamide]: the pEC50 on human M2 receptor [1] was 6.80. Also, on human M2 receptor [2], the “Cooperativity (alpha factor)” value was determined as 31.

As for `CC(COC(F)(F)F)NC(=O)c1cn(-c2ccc(F)cc2F)c2nc(N3CC[C@H](F)C3)ccc2c1=O` (mixture of isomers) [Example 227, 1-(2,4-Difluorophenyl)-7-[(3S)-3-fluoropyrrolidin-1-yl]-4-oxo-N-[1-(trifluoromethoxy)propan-2-yl]-1,4-dihydro-1,8-naphthyridine-3-carboxamide], the pEC50 at human M2 receptor [1] was 7.14. The “Cooperativity (alpha factor)” value on human M2 receptor [2] was determined as 14.

With `CC(COC(F)(F)F)NC(=O)c1cn(-c2ccc(F)cc2F)c2nc(N(C)C)ccc2c1=O` (racemic) [Example 231, 1-(2,4-Difluorophenyl)-7-(dimethylamino)-4-oxo-N-[1-(trifluoromethoxy)propan-2-yl]-1,4-dihydro-1,8-naphthyridine-3-carboxamide], the negative logarithm of the EC50 (pEC50) at human M2 receptor [1] is 6.92. Besides, the “Cooperativity (alpha factor)” value on human M2 receptor [2] is given as 12.

`CC(COC(F)(F)F)NC(=O)c1cn(-c2ccc(F)cc2F)c2nc(N3CCCC3)ccc2c1=O` (racemic) [Example 232, 1-(2,4-Difluorophenyl)-4-oxo-7-(pyrrolidin-1-yl)-N-[1-(trifluoromethoxy)propan-2-yl]-1,4-dihydro-1,8-naphthyridine-3-carboxamide] showed a pEC50 at human M2 receptor [1] of 7.01. In addition, the “Cooperativity (alpha factor)” value on human M2 receptor [2] is 8.
